This is an account of results in US7902373B2 (Pfizer Inc, priority 2006, dated 2011).

The experiment deals with human recombinant H-PGDS (Homo sapiens, UniProt O60760). The experiment is described as follows: Fluorescence intensity h-PGDS TBA enzyme assay. The format is biochemical. To be noted: Examples up to 622 (and 3a, 3b).
Chain of human recombinant H-PGDS (O60760 whole entry): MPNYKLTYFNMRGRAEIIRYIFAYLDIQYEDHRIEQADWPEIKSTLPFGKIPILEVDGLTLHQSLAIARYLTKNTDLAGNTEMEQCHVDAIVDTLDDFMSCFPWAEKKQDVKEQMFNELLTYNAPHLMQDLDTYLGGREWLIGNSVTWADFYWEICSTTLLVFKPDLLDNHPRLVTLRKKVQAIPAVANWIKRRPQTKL

`CC(C)(C)OC(=O)N1C[C@H](O)[C@H](NC(=O)c2ccc(-c3cccc(F)c3)nc2)C1` (relative stereo) [Example 609, cis-tert-Butyl 3-({[6-(3-fluorophenyl)pyridin-3-yl]carbonyl}amino)-4-hydroxypyrrolidine-1-carboxylate]: the IC50 – broadly, the concentration that inhibits the measured activity by half – came to 5.43 nM.

Take `CC(C)(C)OC(=O)N1C[C@@H](O)[C@H](NC(=O)c2ccc(-c3cccc(F)c3)nc2)C1` (relative stereo) [Example 610, Trans-tert-Butyl 3-({[6-(3-fluorophenyl)pyridin-3-yl]carbonyl}amino)-4-hydroxypyrrolidine-1-carboxylate]: the IC50 is 6.92 nM.

For the compound `CC(C)(C)C(=O)N1C[C@@H](O)[C@H](NC(=O)c2ccc(-c3cccc(F)c3)nc2)C1` (relative stereo) [Example 612, Trans-N-[1-(2,2-dimethylpropanoyl)-4-hydroxypyrrolidin-3-yl]-6-(3-fluorophenyl)nicotinamide], the IC50 is 12 nM.

In the case of `O=C(N[C@H]1CN(c2cnc3ccccc3n2)C[C@@H]1O)c1ccc(-c2cccc(F)c2)nc1` (relative stereo) [Example 613, trans-6-(3-Fluorophenyl)-N-[4-hydroxy-1-quinoxalin-2-ylpyrrolidin-3-yl]nicotinamide], the IC50 came to 3.57 nM.

Consider `CCc1cn2nc(N3C[C@H](NC(=O)c4ccc(-c5cccc(F)c5)nc4)[C@@H](O)C3)ccc2n1` (relative stereo) [Example 614, Trans-N-[1-(2-ethylimidazo[12-b]pyridazin-6-yl)-4-hydroxypyrrolidin-3-yl]-6-(3-fluorophenyl)nicotinamide], for which the 50% inhibitory concentration (IC50) was found to be 52.5 nM.

As for `Cc1cc(C)c(C#N)c(N2C[C@@H](O)[C@H](NC(=O)c3ccc(-c4cccc(F)c4)nc3)C2)n1` (relative stereo) [Example 615, Trans-N-[1-(3-cyano-4,6-dimethylpyridin-2-yl)-4-hydroxypyrrolidin-3-yl]-6-(3-fluorophenyl)nicotinamide], the IC50 was 5.1 nM.

On to `O=C(N[C@@H]1CN(c2nc3ccccc3o2)C[C@H]1O)c1ccc(-c2cccc(F)c2)nc1` (relative stereo) [Example 616, Trans-N-[1-(1,3-benzoxazol-2-yl)-4-hydroxypyrrolidin-3-yl]-6-(3-fluorophenyl)nicotinamide], for which the 50% inhibitory concentration (IC50) turned out to be 5.12 nM.

`Cc1ccc(C#N)c(N2C[C@H](NC(=O)c3ccc(-c4cccc(F)c4)nc3)[C@@H](O)C2)n1` (relative stereo) [Example 617]: the IC50 is 4.1 nM.

In the case of `O=C(N[C@@H]1CN(c2ncc3ccc(F)cc3n2)C[C@H]1O)c1ccc(-c2cccc(F)c2)nc1` (relative stereo) [Example 618, Trans-6-(3-fluorophenyl)-N-[1-(7-fluoroquinazolin-2-yl)-4-hydroxypyrrolidin-3-yl]nicotinamide], the IC50 is 7.33 nM.

In the case of `O=C(N[C@@H]1CN(c2nnnn2-c2ccccc2)C[C@H]1O)c1ccc(-c2cccc(F)c2)nc1` (relative stereo) [Example 619, Trans-6-(3-fluorophenyl)-N-[4-hydroxy-1-(1-phenyl-1H-tetrazol-5-yl)pyrrolidin-3-yl]nicotinamide], the IC50 came to 1.19 nM.

Regarding `CCC(CO)n1cnc2c(N3CCC(NC(=O)c4ccc(-c5cccc(F)c5)nc4)CC3)ncnc21` (single isomer, unassigned) [Example 581, 6-(3-Fluorophenyl)-N-(1-{9-[1-(hydroxymethyl)propyl]-9H-purin-6-yl}piperidin-4-yl)nicotinamide], the 50% inhibitory concentration (IC50) was 0.69 nM.

With `CCC(CO)n1cnc2c(N3CCC(NC(=O)c4ccc(-c5cccc(F)c5)nc4)CC3)ncnc21` (single isomer, unassigned) [Example 582, 6-(3-Fluorophenyl)-N-(1-{9-[1-(hydroxymethyl)propyl]-9H-purin-6-yl}piperidin-4-yl)nicotinamide], the IC50 worked out at 1.22 nM.

Consider `O=C(NC1CCN(CC(F)(F)F)CC1)c1ccc(-c2ccccc2)nc1` [Example 1, 6-Phenyl-N-(1-(2,2,2-trifluoroethyl)piperidin-4-yl)nicotinamide], for which the IC50 came to 0.204 nM.

Consider `O=C(NC1CCN(c2ccc(C(=O)N3CCOCC3)cn2)CC1)c1ccc(-c2cccc(F)c2)nc1` [Example 3, 6-(3-Fluorophenyl)-N-{1-[5-(morpholin-4-ylcarbonyl)pyridin-2-yl]piperidin-4-yl}nicotinamide], for which the IC50 was found to be 0.343 nM.

Turning to `CN1CCC(NC(=O)c2ccc(-c3ccccc3)nc2)CC1` [Example 3a, N-(1-Methylpiperidin-4-yl)-6-phenylnicotinamide], the IC50 is 6.86 nM.

Turning to `CCOC(=O)N1CCC(NC(=O)c2ccc(-c3ccccc3)nc2)CC1` [Example 3b, Ethyl 4-{[(6-phenylpyridin-3-yl)carbonyl]amino}piperidine-1-carboxylate], the IC50 was 0.403 nM.

As for `CC(C)N1CCC(NC(=O)c2ccc(-c3ccccc3)nc2)CC1` [Example 4, N-(1-Isopropylpiperidin-4-yl)-6-phenylnicotinamide], the 50% inhibitory concentration (IC50) turned out to be 2.58 nM.

As to `O=C(NC1CCN(Cc2ccccn2)CC1)c1ccc(-c2ccccc2)nc1` [Example 5, 6-Phenyl-N-[1-(pyridin-2-ylmethyl)piperidin-4-yl]nicotinamide], the IC50 came out at 0.665 nM.

`O=C(NC1CCN(CC2CCOCC2)CC1)c1ccc(-c2ccccc2)nc1` [Example 6, 6-Phenyl-N-[1-(tetrahydro-2H-pyran-4-ylmethyl)piperidin-4-yl]nicotinamide]: the IC50 is 0.377 nM.

As for `CC(C)(C)C(=O)N1CCC(NC(=O)c2ccc(-c3ccccc3)nc2)CC1` [Example 7, N-[1-(2,2-Dimethylpropanoyl)piperidin-4-yl]-6-phenylnicotinamide], the IC50 turned out to be 0.351 nM.

Consider `O=C(NC1CCN(Cc2ccccc2)CC1)c1ccc(-c2ccccc2)nc1` [Example 8, N-(1-Benzylpiperidin-4-yl)-6-phenylnicotinamide], for which the IC50 is 1.57 nM.

On to `O=C(NC1CCN(CC(F)(F)F)CC1)c1ccc(-c2ccc(F)cc2)nc1` [Example 9, 6-(4-Fluorophenyl)-N-(1-(2,2,2-trifluoroethyl)piperidin-4-yl)nicotinamide], for which the IC50 turned out to be 23.6 nM.

As to `CCCC(=O)N1CCC(NC(=O)c2ccc(-c3ccc(F)cc3)nc2)CC1` [Example 10, N-(1-Butyrylpiperidin-4-yl)-6-(4-fluorophenyl)nicotinamide], the IC50 came to 78.4 nM.

With `O=C(NC1CCN(Cc2ccccn2)CC1)c1ccc(-c2ccc(F)cc2)nc1` [Example 11, 6-(4-Fluorophenyl)-N-[1-(pyridin-2-ylmethyl)piperidin-4-yl]nicotinamide], the IC50 is 39.4 nM.

Take `CN1CCC(NC(=O)c2ccc(-c3ccc(F)cc3)nc2)CC1` [Example 12, 6-(4-Fluorophenyl)-N-(1-methylpiperidin-4-yl)nicotinamide]: the IC50 amounted to 694 nM.

In the case of `O=C(NC1CCN(Cc2ccccc2)CC1)c1ccc(-c2ccc(F)cc2)nc1` [Example 13, N-(1-Benzylpiperidin-4-yl)-6-(4-fluorophenyl)nicotinamide], the IC50 worked out at 58 nM.

For `COc1cccc(-c2ccc(C(=O)NC3CCN(CC(F)(F)F)CC3)cn2)c1` [Example 14, 6-(3-Methoxyphenyl)-N-(1-(2,2,2-trifluoroethyl)piperidin-4-yl)nicotinamide], the IC50 was 4.29 nM.

For the compound `COc1cccc(-c2ccc(C(=O)NC3CCN(Cc4ccccn4)CC3)cn2)c1` [Example 15, 6-(3-Methoxyphenyl)-N-[1-(pyridin-2-ylmethyl)piperidin-4-yl]nicotinamide], the IC50 came to 2.91 nM.

In the case of `COc1cccc(-c2ccc(C(=O)NC3CCN(C)CC3)cn2)c1` [Example 16, 6-(3-Methoxyphenyl)-N-(1-methylpiperidin-4-yl)nicotinamide], the IC50 is 146 nM.

In the case of `COc1cccc(-c2ccc(C(=O)NC3CCN(Cc4ccccc4)CC3)cn2)c1` [Example 17, N-(1-Benzylpiperidin-4-yl)-6-(3-methoxyphenyl)nicotinamide], the IC50 came to 11.7 nM.

In the case of `CCOC(=O)N1CCC(NC(=O)c2ccc(-c3cccc(OC)c3)nc2)CC1` [Example 18, Ethyl 4-({[6-(3-methoxyphenyl)pyridin-3-yl]carbonyl}amino)piperidine-1-carboxylate], the IC50 came out at 3.94 nM.

`CCCC(=O)N1CCC(NC(=O)c2ccc(-c3cccc(OC)c3)nc2)CC1` [Example 19, N-(1-Butyrylpiperidin-4-yl)-6-(3-methoxyphenyl)nicotinamide]: the IC50 was found to be 36.2 nM.

In the case of `COc1cccc(-c2ccc(C(=O)NC3CCN(C(C)C)CC3)cn2)c1` [Example 20, N-(1-Isopropylpiperidin-4-yl)-6-(3-methoxyphenyl)nicotinamide], the IC50 was determined as 1000 nM.

On to `Cc1cccc(-c2ccc(C(=O)NC3CCN(CC(F)(F)F)CC3)cn2)c1` [Example 21, 6-m-Tolyl-N-(1-(2,2,2-trifluoroethyl)piperidin-4-yl)nicotinamide], for which the IC50 stood at 0.898 nM.

`Cc1cccc(-c2ccc(C(=O)NC3CCN(C)CC3)cn2)c1` [Example 22, 6-(3-Methylphenyl)-N-(1-methylpiperidin-4-yl)nicotinamide]: the IC50 was 73.3 nM.

For `Cc1cccc(-c2ccc(C(=O)NC3CCN(Cc4ccccc4)CC3)cn2)c1` [Example 23, N-(1-Benzylpiperidin-4-yl)-6-(3-methylphenyl)nicotinamide], the 50% inhibitory concentration (IC50) came to 1.72 nM.

Regarding `CCCC(=O)N1CCC(NC(=O)c2ccc(-c3cccc(C)c3)nc2)CC1` [Example 24, N-(1-Butyrylpiperidin-4-yl)-6-(3-methylphenyl)nicotinamide], the IC50 came to 2.64 nM.

Consider `Cc1cccc(-c2ccc(C(=O)NC3CCN(C(C)C)CC3)cn2)c1` [Example 25, N-(1-Isopropylpiperidin-4-yl)-6-(3-methylphenyl)nicotinamide], for which the IC50 came out at 7.66 nM.

In the case of `CN1CCC(NC(=O)c2ccc(-c3cccc(F)c3)nc2)CC1` [Example 27, 6-(3-Fluorophenyl)-N-(1-methylpiperidin-4-yl)nicotinamide], the IC50 came to 19.1 nM.

For `O=C(NC1CCN(Cc2ccccn2)CC1)c1ccc(-c2cccc(F)c2)nc1` [Example 28, 6-(3-Fluorophenyl)-N-[1-(pyridin-2-ylmethyl)piperidin-4-yl]nicotinamide], the IC50 is 1.72 nM.

For the compound `O=C(NC1CCN(Cc2ccccc2)CC1)c1ccc(-c2cccc(F)c2)nc1` [Example 29, N-(1-Benzylpiperidin-4-yl)-6-(3-fluorophenyl)nicotinamide], the IC50 was 0.946 nM.
